This is an account of results in ChEMBL document CHEMBL5465560, “Selectivity Literature for EUbOPEN Chemogenomic Library” (2024).

Bounds are passed on as bounds.

Test [1] has as its target T1, Dual specificity tyrosine-phosphorylation-regulated kinase 2 (Homo sapiens) (UniProt Q92630).
T1 sequence (whole entry): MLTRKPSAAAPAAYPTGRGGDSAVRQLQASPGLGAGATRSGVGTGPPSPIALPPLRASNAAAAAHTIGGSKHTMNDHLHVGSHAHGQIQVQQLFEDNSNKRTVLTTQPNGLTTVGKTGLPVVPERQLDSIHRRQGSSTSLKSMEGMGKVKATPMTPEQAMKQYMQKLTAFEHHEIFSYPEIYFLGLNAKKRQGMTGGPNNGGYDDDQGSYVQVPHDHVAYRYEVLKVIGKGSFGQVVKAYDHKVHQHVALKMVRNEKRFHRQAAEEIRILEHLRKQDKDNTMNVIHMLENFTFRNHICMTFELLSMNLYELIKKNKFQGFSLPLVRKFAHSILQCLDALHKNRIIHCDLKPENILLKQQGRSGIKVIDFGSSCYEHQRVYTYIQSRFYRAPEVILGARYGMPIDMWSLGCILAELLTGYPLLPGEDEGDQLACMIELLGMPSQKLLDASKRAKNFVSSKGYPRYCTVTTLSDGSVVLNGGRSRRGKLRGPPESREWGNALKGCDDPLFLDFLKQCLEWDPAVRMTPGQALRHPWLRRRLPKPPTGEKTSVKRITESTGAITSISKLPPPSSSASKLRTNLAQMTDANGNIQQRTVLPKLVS
The experiment in a line: Selectivity interaction (KinomeScan (DiscoverX)) EUB0000595a DYRK2. Conditions: at 10 µM.

The target of test [2] is Small conductance calcium-activated potassium channel protein 1 (Homo sapiens) (UniProt Q92952). The experiment in a line: Selectivity interaction (Eurofins CEREP Diversity Profile (receptors and ion channels)) EUB0000279b KCNN1. Conditions: at 10 µM.
Chain of Small conductance calcium-activated potassium channel protein 1 (Homo sapiens) (Q92952 whole entry): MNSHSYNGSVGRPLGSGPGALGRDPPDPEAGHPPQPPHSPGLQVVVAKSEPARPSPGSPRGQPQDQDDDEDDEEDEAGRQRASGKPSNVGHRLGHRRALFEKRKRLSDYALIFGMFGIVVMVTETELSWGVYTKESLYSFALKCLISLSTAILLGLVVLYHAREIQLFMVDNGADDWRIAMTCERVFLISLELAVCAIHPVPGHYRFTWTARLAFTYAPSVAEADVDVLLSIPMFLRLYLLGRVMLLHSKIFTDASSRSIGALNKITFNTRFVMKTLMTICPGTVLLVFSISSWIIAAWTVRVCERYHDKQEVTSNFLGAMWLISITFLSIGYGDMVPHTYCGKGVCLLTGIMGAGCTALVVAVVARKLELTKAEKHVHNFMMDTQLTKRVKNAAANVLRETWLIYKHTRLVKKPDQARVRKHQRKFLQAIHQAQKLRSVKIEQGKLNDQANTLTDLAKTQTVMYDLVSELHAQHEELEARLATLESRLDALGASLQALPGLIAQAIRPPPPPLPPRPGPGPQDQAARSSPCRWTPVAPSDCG
The target in test [3] is Histone-lysine N-methyltransferase KMT5C (Homo sapiens) (UniProt Q86Y97). Conditions: at 1 µM.
Chain of Histone-lysine N-methyltransferase KMT5C (Homo sapiens) (Q86Y97 whole entry, looked up): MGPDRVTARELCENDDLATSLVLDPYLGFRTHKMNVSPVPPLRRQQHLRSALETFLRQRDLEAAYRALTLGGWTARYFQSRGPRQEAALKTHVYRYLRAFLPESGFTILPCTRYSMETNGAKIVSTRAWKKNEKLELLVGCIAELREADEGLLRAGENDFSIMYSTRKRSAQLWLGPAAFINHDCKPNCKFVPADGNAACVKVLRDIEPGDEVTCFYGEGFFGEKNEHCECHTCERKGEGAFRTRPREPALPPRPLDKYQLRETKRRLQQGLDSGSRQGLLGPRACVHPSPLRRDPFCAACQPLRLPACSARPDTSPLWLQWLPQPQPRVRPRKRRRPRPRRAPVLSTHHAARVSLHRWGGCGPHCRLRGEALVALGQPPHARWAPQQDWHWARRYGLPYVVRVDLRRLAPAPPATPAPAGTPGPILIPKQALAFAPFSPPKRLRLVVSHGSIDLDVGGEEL
For test [4], the target named is Tyrosine-protein kinase Fyn (Homo sapiens) (UniProt P06241). In words: Selectivity interaction (KinomeScan (DiscoverX)) EUB0000045b FYN.
Chain of Tyrosine-protein kinase Fyn (Homo sapiens) (P06241 2-537 limits assumed): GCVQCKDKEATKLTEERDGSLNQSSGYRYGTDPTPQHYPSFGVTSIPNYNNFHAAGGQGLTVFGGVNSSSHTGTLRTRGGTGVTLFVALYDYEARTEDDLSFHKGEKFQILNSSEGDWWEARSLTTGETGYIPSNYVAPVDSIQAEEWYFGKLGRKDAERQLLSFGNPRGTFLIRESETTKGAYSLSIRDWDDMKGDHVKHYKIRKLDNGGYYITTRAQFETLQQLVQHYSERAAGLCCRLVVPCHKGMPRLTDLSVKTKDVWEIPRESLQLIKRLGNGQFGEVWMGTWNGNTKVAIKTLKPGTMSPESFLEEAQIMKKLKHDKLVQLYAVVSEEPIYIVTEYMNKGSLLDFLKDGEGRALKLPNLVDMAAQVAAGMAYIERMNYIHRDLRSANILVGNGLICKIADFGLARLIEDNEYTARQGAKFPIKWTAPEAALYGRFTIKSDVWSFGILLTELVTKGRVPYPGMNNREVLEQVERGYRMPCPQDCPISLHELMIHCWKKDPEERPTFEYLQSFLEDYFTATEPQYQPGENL
Test [5] has as its target Dual specificity tyrosine-phosphorylation-regulated kinase 1A (Homo sapiens, UniProt Q13627). The experiment in a line: Selectivity interaction (ProQinase) EUB0000171b DYRK1A.
Test [6] has as its target T2, Myotonin-protein kinase (Homo sapiens) (UniProt Q09013).
T2 sequence (whole entry): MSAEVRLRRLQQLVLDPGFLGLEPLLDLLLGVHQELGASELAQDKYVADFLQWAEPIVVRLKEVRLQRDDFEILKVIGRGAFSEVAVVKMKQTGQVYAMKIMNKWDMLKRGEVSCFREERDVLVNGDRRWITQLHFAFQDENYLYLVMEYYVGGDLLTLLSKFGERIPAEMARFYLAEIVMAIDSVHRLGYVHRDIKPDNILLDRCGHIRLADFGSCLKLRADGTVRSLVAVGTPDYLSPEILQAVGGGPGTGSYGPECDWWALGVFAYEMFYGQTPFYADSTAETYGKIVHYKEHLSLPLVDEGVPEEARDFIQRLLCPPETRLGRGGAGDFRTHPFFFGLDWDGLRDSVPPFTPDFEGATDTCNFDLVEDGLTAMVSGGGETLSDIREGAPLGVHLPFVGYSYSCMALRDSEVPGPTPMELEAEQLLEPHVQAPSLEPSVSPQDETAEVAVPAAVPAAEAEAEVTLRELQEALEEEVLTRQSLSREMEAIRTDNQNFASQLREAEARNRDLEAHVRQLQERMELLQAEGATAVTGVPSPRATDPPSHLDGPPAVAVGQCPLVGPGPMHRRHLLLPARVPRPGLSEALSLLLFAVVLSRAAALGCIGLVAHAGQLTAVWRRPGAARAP
The experiment in a line: Selectivity interaction (KinomeScan (DiscoverX)) EUB0001049a DMPK. Conditions: at 1 µM.

For test [7], the target named is T3, cGMP-dependent protein kinase 1 (Homo sapiens) (UniProt Q13976).
T3 sequence (whole entry): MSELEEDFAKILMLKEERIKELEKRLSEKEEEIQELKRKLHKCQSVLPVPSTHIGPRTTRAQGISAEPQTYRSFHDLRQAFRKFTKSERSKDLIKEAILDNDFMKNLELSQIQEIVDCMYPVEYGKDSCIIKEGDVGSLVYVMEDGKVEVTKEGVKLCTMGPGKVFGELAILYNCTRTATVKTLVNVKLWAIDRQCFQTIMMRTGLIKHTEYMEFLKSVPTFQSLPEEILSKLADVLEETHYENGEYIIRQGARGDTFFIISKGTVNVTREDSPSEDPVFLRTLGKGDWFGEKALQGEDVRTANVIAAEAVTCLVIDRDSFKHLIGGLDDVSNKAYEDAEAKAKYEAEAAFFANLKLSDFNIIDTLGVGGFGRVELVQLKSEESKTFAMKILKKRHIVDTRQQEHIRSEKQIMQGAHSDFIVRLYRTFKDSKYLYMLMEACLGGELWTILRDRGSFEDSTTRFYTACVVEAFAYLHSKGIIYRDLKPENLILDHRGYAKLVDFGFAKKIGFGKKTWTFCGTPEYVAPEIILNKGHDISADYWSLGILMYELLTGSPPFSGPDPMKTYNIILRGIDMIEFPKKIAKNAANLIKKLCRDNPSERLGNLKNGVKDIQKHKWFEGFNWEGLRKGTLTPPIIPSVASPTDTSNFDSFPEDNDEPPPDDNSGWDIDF
The experiment in a line: Selectivity interaction (Upstate Kinase Profiler service (Millipore)) EUB0000056c PRKG1. Conditions: at 1 µM.

The target in test [8] is Tyrosine-protein kinase Fgr (Homo sapiens) (UniProt P09769). The experiment in a line: Selectivity interaction (Upstate Kinase Profiler service (Millipore)) EUB0000056c FGR. Conditions: at 1 µM.
Chain of Tyrosine-protein kinase Fgr (Homo sapiens) (P09769 2-529 limits assumed): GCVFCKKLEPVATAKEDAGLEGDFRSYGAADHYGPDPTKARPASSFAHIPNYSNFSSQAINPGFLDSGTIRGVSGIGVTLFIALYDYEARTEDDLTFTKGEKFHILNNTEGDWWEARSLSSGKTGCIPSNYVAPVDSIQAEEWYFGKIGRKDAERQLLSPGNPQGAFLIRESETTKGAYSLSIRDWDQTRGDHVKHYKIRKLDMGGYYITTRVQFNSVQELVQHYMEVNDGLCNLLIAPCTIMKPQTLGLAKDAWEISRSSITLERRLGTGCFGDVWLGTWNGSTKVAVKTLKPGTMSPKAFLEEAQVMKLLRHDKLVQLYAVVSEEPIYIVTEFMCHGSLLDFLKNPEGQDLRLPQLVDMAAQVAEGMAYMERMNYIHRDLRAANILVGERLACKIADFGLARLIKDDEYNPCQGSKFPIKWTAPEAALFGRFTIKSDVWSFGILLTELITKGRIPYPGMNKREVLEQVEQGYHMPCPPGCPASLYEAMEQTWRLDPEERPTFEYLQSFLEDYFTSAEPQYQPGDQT
Test [9] concerns the target T4, Alpha-1A adrenergic receptor (Homo sapiens) (UniProt P35348).
T4 sequence (whole entry): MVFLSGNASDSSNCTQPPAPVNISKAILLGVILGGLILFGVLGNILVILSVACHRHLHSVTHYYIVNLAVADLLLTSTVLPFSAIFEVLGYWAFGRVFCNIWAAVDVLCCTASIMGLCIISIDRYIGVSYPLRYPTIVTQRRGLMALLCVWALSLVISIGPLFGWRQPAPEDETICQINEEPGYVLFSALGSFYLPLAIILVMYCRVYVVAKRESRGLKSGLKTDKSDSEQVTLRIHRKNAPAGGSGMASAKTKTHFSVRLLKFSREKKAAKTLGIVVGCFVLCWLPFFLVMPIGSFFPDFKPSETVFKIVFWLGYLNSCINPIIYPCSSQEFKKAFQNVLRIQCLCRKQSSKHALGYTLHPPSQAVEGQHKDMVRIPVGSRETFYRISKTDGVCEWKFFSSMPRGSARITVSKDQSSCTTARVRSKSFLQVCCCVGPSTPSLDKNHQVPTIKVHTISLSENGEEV
In words: Selectivity interaction (Panel of non-epigenetic targets (kinases, GPCRs, ion channels, and transporters, Eurofins) ) EUB0000271b ADRA1A. Conditions: at 1 µM.

In test [10] the target is Casein kinase I isoform gamma-3 (Homo sapiens) (UniProt Q9Y6M4). The experiment in a line: Selectivity interaction (KinomeScan (DiscoverX)) EUB0001079a CSNK1G3. Conditions: at 1 µM.
Chain of Casein kinase I isoform gamma-3 (Homo sapiens) (Q9Y6M4 whole entry, looked up, canonical isoform): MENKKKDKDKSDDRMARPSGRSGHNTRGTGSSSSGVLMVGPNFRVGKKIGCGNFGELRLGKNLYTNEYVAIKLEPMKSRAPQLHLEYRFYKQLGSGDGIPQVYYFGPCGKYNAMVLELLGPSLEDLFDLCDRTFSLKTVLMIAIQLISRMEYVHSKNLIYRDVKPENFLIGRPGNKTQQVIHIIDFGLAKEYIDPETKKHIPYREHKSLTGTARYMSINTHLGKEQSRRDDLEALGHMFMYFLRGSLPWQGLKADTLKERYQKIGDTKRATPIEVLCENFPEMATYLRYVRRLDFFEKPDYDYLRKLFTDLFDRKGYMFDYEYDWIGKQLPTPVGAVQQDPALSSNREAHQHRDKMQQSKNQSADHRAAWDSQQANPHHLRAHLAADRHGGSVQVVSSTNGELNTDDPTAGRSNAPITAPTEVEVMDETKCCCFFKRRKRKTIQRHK

On to `COCC(=O)NC/C=C/c1ccc2ncnc(Nc3ccc(Oc4ccc(C)nc4)c(C)c3)c2c1` [CP-724714], for which the % of control in test [1] worked out at 100%.

Regarding `CC(=O)c1cc(-c2ccccc2OCC2CC2)c2ncccn12`, the % of control in [2] amounted to 110%. In test [3], `CNCCN1CCC(c2cc(CN(C)C(=O)c3cccc(Oc4ccccc4)c3)ccn2)CC1` came in with a % activity of over 90%. For `C=CC(=O)Nc1cc(-n2c(=O)ccc3cnc4ccc(-c5ccc(NS(C)(=O)=O)cc5)cc4c32)ccc1C`, the % of control in [4] (at 1 µM) worked out at 100%; in test [4] (at 10 µM), 98%.

Take `C=CC(=O)Nc1cccc(C(=O)Nc2ccc(Nc3cc(-c4[nH]c(SC)nc4C)ccn3)cc2)c1`: the % of control in [5] (at 1 µM) is 92%; in test [5] (at 5 µM) it was 70%. Regarding `COc1cc(Nc2nc(C)cc(-c3cnn4nc(OC)ccc34)n2)cc(C(F)(F)F)c1`, in test [6], the % of control is 100%. In the case of `Cc1ccc(-c2ccc3c(ccc4sc5c(c43)NC[C@@H](C)NC5=O)n2)cn1`, the % of inhibition in test [7] was determined as 3%; in [8], 9%. The compound `Cc1cc(C)cc([C@@H]2c3cc(C)ccc3NC(=O)CN2C(=O)c2ccc(Br)s2)c1` came in with a % of inhibition in [9] of 4%. For `Nc1cnc(N2CCc3cc(S(=O)(=O)Nc4c(F)cc(Cl)cc4F)cc(N4CCCC4=O)c32)nc1` [TP-020n], the % of control in test [10] stood at 78%.
